Molecular target: T1, AHK4^CD (6×His-AHK4^CD-GFP) (Arabidopsis thaliana, UniProt Q9C5U0)
T1 construct: extracellular CHASE domain, residues 126-395; N-terminal 6×His via linker, C-terminal GFP, tags kept; pRSF-Duet, E. coli Rosetta (BL21), Ni-NTA
T1 sequence (Q9C5U0 149-418): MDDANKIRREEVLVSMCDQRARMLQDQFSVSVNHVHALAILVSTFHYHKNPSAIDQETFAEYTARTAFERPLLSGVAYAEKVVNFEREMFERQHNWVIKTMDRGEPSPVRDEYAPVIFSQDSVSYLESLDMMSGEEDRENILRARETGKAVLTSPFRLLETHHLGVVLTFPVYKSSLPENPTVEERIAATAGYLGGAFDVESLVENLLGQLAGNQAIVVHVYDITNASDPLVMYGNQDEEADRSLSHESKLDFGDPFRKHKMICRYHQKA
Assay: microscale thermophoresis (MST), GFP-tagged target
Format: binding

SMILES | Kd [nM]
CC(C)=CCNc1ncnc2nc[nH]c12 [2iP] | 540 ± 262
c1ccc(CNc2ncnc3nc[nH]c23)cc1 [6-BA] | 27.7 ± 20.7

— publication doi:10.1101/2025.08.05.668571v1, “Preliminary Study on the Mechanisms of Cytokinin and Its Receptor Binding Diversity” (biorxiv, 2025)
